Measurements taken from patent US11260108B2, “MIC-1 and GLP-1 for use in the treatment of obesity” (Novo Nordisk A/S, priority 2017, dated 2022).

Tested on: male obese Sprague Dawley rats
Assay: Body weight lowering in obese rat, MIC-1-HSA in combination with semaglutide (Example 2)
Assay type: in vivo
From the text: The purpose of the study in example 2 was to investigate effects of a MIC-1-HSA compound in combination with the GLP-1 compound semaglutide on body weight lowering in obese rat.
60 male obese Sprague Dawley rats from Taconic were used. Animals where housed 2 per cage and had ad libitum access to high-fat diet (45 kcal % fat, Research Diets Inc, diet 12451). Mean starting body weight was 736.0 g (634.7-982.4 g). Animals were randomised into 6 groups based on body weight (n=10). Animals were housed in reversed light cycle (dark 11:00-23:00). Vehicle and semaglutide were dosed subcutaneously (SC) once daily (QD) for the duration of the study (study day 0-26) at 10 am. Because of the immunogenic properties of MIC-1-HSA in rodents, the dosing period with MIC-1-HSA was limited to 12 days. MIC-1-HSA was dosed SC every other day, starting at study day 15 and ending at day 26. The two compounds were in all cases dosed individually and were not administrated in the same formulation using the same syringe.
Due to a long in vivo terminal half-life of MIC-1 HSA (˜50 hrs in lean rat) animals were dosed with a bolus dose at day 15 and subsequent doses of MIC-1-HSA were reduced to compensate for the protracted half-life to achieve a stable plasma exposure during the study. […] Dose volume was adjusted to daily body weight. Please see table 3.
The dose of Semaglutide was 2 nmol/kg and was selected in order to achieve a therapeutic relevant pharmaco-dynamic effect.
From day −1 and during the entire dosing period until day 26, body weight was monitored daily prior to dosing.
The dosing was performed using insulin syringe and a dosing volume of 1 ml/kg (2.3 ml/kg for bolus dose of MIC-1-HSA).
In table 4 are shown pharmacodynamic effects expressed as changes in body weights of obese rats in response to the 6 treatment arms. Data are expressed as the average values as grams (A) and as percentages (B). “Delta 0-26” is the change in body weight from day 0 to day 26. “vs vehicle” is the change in body weight at day 26 in comparison with the vehicle group at day 26. “Predicted” is the expected change in body weight based on body weight changes in the associated MIC-1-HSA and semaglutide mono-therapy arms. “Synergy” expresses the unexpected and additional effect beyond the predicted effect of the MIC-1-HSA and semaglutide combination. This value is calculated by subtracting the predicted value from the actual effect of the combination (vs vehicle). A negative synergy value reflects an additional unexpected synergistic body weight lowering effect.

[1] = Sema 2 nmol/kg, change day 0 to day 26
[2] = Sema 2 nmol/kg, day 26 vs vehicle group

**Q.** For “N6.26-{18-[N-(17-carboxyheptadecanoyl)-L-γ-glutamyl]-10-oxo-3,6,12,15-tetraoxa-9,18-diazaoctadecanoyl}-[8-(2-amino-2-propanoic acid),34-L-arginine]human glucagon-like peptide 1(7-37) [Sema]”, which “Body weight [% of study start] Study end” value (Sema 2 nmol/kg SC QD day 0-26) is on record?
**A.** The value was 95 % of study start.

**Q.** What about the “Body weight [gram] Study end” value (Sema 2 nmol/kg SC QD day 0-26) of the same substance?
**A.** Its value is 746 gram.

**Q.** What about the “Body weight [% of study start] Delta 0-26” value [1] of the same substance?
**A.** Its value is −5.4 % of study start.

**Q.** What about the “Body weight [gram] Delta 0-26” value [1] of the same substance?
**A.** The value was −41.8 gram.

**Q.** What about the “Body weight [% of study start] vs vehicle” value [2] of the same substance?
**A.** The value was −8.0 % of study start.

**Q.** What about the “Body weight [gram] vs vehicle” value [2] of the same substance?
**A.** Its value is −62.2 gram.

**Q.** And the “reduced body weight compared to vehicle” value (semaglutide monotherapy 2 nmol/kg, day 26)?
**A.** The value was 8.0%.
